# Measurements reported in the supplement of paper PMC4862054.
# Legend:
# Settings in all cases: incubation time: 72 h
# [1] = tested on: BT-474; experiment: normalised response (% of control), CellTiter-Glo; higher = more viable cells (100 = DMSO, 0 = benzethonium chloride kill control)
# In short: (§1)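 For each plate, 0.1 % DMSO was set to 100 and a positive kill control to 0. Breast cancer cell lines (20 µl suspension) were seeded into 384-well plates already holding compound at 5 concentrations in 10-fold steps over a 10,000-fold range chosen per compound, and incubated for 72 h. CellTox Green fluorescence at 485/520 nm was read before CellTiter-Glo luminescence, which followed 10 min at room temperature. Each value is the normalised signal at one concentration.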
# [2] = tested on: BT-549; experiment: as above
# In short: as §1
# [3] = tested on: CAL-120; experiment: as above
# In short: as §1
# [4] = tested on: CAL-148; experiment: as above
# In short: as §1
# [5] = tested on: CAL-51; experiment: as above
# In short: as §1
# [6] = tested on: CAL-85-1; experiment: as above
# In short: as §1
# [7] = tested on: DU-4475; experiment: as above
# In short: as §1
# [8] = tested on: HCC1143; experiment: as above
# In short: as §1
# [9] = tested on: HCC1599; experiment: as above
# In short: as §1
# [10] = tested on: HCC1937; experiment: as above
# In short: as §1
# [11] = tested on: HDQ-P1; experiment: as above
# In short: as §1
# [12] = tested on: Hs578T; experiment: as above
# In short: as §1
# [13] = tested on: MCF-10A; experiment: as above
# In short: as §1
# [14] = tested on: MDA-MB-231; experiment: as above
# In short: as §1
# [15] = tested on: MDA-MB-436; experiment: as above
# In short: as §1
# [16] = tested on: MDA-MB-453; experiment: as above
# In short: as §1
# [17] = tested on: MDA-MB-468; experiment: as above
# In short: as §1
# [18] = tested on: MFM-223; experiment: as above
# In short: as §1
# [19] = tested on: SK-BR-3; experiment: as above
# In short: as §1
# [20] = tested on: BT-474; experiment: normalised viability (% of control), CellTiter-Blue; higher = more viable cells (100 = DMSO, 0 = benzethonium chloride kill control)
# In short: (§2)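 Plates were quality-checked by Z'-factor and normalised to vehicle (100) and a positive kill control (0). The underlying assay incubated breast cancer cell lines for 72 h on 384-well plates with compound, then added 2.5 µl CellTiter-Blue for 2 h at 37 °C and read at 560/590 nm. The value is normalised viability at a single listed concentration of the series.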
# [21] = tested on: BT-549; experiment: as above
# In short: as §2
# [22] = tested on: CAL-120; experiment: as above
# In short: as §2
# [23] = tested on: CAL-148; experiment: as above
# In short: as §2
# [24] = tested on: CAL-51; experiment: as above
# In short: as §2
# [25] = tested on: CAL-85-1; experiment: as above
# In short: as §2
# [26] = tested on: DU-4475; experiment: as above
# In short: as §2
# [27] = tested on: HCC1143; experiment: as above
# In short: as §2
# [28] = tested on: HCC1599; experiment: as above
# In short: as §2
# [29] = tested on: HCC1937; experiment: as above
# In short: as §2
# [30] = tested on: HDQ-P1; experiment: as above
# In short: as §2
# [31] = tested on: Hs578T; experiment: as above
# In short: as §2
# [32] = tested on: MDA-MB-231; experiment: as above
# In short: as §2
# [33] = tested on: MDA-MB-436; experiment: as above
# In short: as §2
# [34] = tested on: MDA-MB-453; experiment: as above
# In short: as §2
# [35] = tested on: MDA-MB-468; experiment: as above
# In short: as §2
# [36] = tested on: MFM-223; experiment: as above
# In short: as §2
# [37] = tested on: SK-BR-3; experiment: as above
# In short: as §2
Structure (SMILES),normalised response [1],normalised response [2],normalised response [3],normalised response [4],normalised response [5],normalised response [6],normalised response [7],normalised response [8],normalised response [9],normalised response [10],normalised response [11],normalised response [12],normalised response [13],normalised response [14],normalised response [15],normalised response [16],normalised response [17],normalised response [18],normalised response [19],normalised viability [20],normalised viability [21],normalised viability [22],normalised viability [23],normalised viability [24],normalised viability [25],normalised viability [26],normalised viability [27],normalised viability [28],normalised viability [29],normalised viability [30],normalised viability [31],normalised viability [32],normalised viability [33],normalised viability [34],normalised viability [35],normalised viability [36],normalised viability [37]
CN[C@@H]1C[C@H]2O[C@@](C)([C@@H]1OC)n1c3ccccc3c3c4c(c5c6ccccc6n2c5c31)C(=O)N[C@H]4O [UCN-01] (1 nM),97.5%,95.5%,91.5%,105%,78.4%,102%,109%,98.7%,100%,90.9%,99%,98%,102%,103%,100%,99.8%,103%,102%,109%,99.2%,92%,82.9%,102%,98.9%,87.8%,128%,95.7%,118%,82.1%,69.6%,106%,92%,111%,99.3%,99.8%,108%,104%
Cc1ccc(-n2nc(C(C)(C)C)cc2NC(=O)Nc2ccc(OCCN3CCOCC3)c3ccccc23)cc1 [Doramapimod] (1 nM),95.5%,107%,93.3%,88.6%,83.7%,91.3%,97.6%,98.3%,81.5%,97.4%,93%,95.5%,78.8%,97.9%,93.8%,95%,95%,92.4%,79.2%,112%,99.7%,89.9%,97.8%,112%,100%,105%,97.3%,99.3%,87%,64.3%,101%,102%,92.2%,104%,105%,98.8%,108%
Cc1ccc(C(=O)Nc2ccc(CN3CCN(C)CC3)c(C(F)(F)F)c2)cc1C#Cc1cnc2cccnn12 [Ponatinib] (0.1 nM),102%,109%,103%,105%,95.4%,103%,101%,95.9%,99.4%,95.3%,104%,102%,102%,99.3%,105%,101%,105%,98%,101%,90.1%,98.3%,97.1%,98.5%,87.5%,101%,97.2%,103%,104%,87.3%,109%,111%,107%,103%,92.5%,104%,103%,91.9%
N[C@@H](CSC(c1ccccc1)(c1ccccc1)c1ccccc1)C(=O)O [S-trityl-L-cysteine] (4 nM),105%,96.5%,106%,103%,81%,101%,95.7%,97%,87.5%,92%,103%,95.5%,97.6%,100%,85.6%,107%,101%,96.9%,99.6%,91.1%,85.8%,115%,112%,91.3%,122%,116%,143%,108%,89%,96.6%,106%,104%,109%,88.6%,101%,105%,88.2%
CN(C)/N=N/c1[nH]cnc1C(N)=O [Dacarbazine] (1 nM),101%,101%,94.7%,100%,99.1%,96.7%,104%,104%,96.7%,101%,96%,107%,100%,105%,122%,116%,102%,103%,99.9%,99.6%,108%,89.3%,99.7%,87.7%,90.2%,104%,92.2%,81.7%,108%,105%,106%,94.8%,114%,96.5%,103%,101%,106%
CNCc1ccc(-c2[nH]c3cc(F)cc4c3c2CCNC4=O)cc1 [Rucaparib] (1 nM),92.6%,96.9%,96.3%,98.2%,117%,100%,99.4%,94.1%,98.4%,97.8%,97.2%,102%,84.6%,99.1%,98.5%,98.2%,96.8%,95.9%,82.4%,109%,95.3%,79.5%,96.4%,113%,88.6%,111%,103%,122%,108%,68.1%,97.4%,105%,104%,95.2%,110%,91.6%,100%
N.N.[Cl][Pt][Cl] [Cisplatin] (1 nM),101%,98.7%,101%,90.5%,74.7%,94.9%,94.2%,90.8%,102%,101%,101%,101%,95.4%,100%,96.7%,99.3%,94.9%,99.4%,98.7%,109%,92%,85.1%,118%,113%,92.1%,107%,98.2%,96.4%,90.5%,106%,121%,103%,105%,111%,98.2%,93.7%,100%
O=C1CCC(N2C(=O)c3ccccc3C2=O)C(=O)N1 (stereo unspecified) [Thalidomide] (1 nM),99.2%,104%,99.3%,96.4%,93.9%,100%,95.1%,95.5%,111%,97.7%,101%,98.2%,104%,104%,101%,96.6%,98.5%,98%,96.8%,76.9%,95.2%,115%,122%,86.2%,109%,101%,100%,104%,90%,110%,106%,88.7%,97%,108%,105%,96.1%,102%
